Laboratory results from patent US9938273B2 (Plexxikon Inc., priority 2015, dated 2018).

What was measured:
[1] = test system: MOLM-14 D835Y cells, FLT3 ITD and FLT3 D835Y; assay: Cell proliferation assay (CellTiter-Glo), MOLM-14 D835Y; assay type: cell-based; conditions: Homo sapiens, 72 h, 3d-Growth, GMean
From the text: The FLT3 inhibitors may be assessed using the MOLM-14, Acute Myeloid Leukemia cell line that endogenously expresses FLT3 ITD or derivatives of the human FLT3 AML cell line which acquired the D835Y (activation loop) of F691L (gatekeeper) mutation after selection in escalating doses of the FLT3 Inhibitor AC220. FLT3 inhibitors may also be assessed using cells that are engineered to express mutant FLT3. For engineered cells, murine Ba/F3 cells were transfected with full-length FLT3 ITD/D835Y mutations. The parental BA/F3 cells are dependent upon Interleukin-3 (IL-3) for survival, and introduction of the FLT3 constructs rendered these cells dependent upon FLT3 kinase activity when cultured in the absences of IL-3. Engineered BA/F3 cell growth assays can be performed in either the […] of IL-3, to assess the compound inhibition of FLT3 or to detect the presence of off-target activity, respectively. Inhibitors of FLT3 kinase activity reduce or eliminate the FLT3 oncogenic signaling, resulting in reduced cell proliferation. This inhibition is measured as a function of compound concentration to asses IC50 values.
Cell lines used in proliferation assays are as follows in Table 3:
Cells were seeded at 1×10^4 cells per well of a 96 well cell culture plate in 50 μl of cell culture medium. Compounds were dissolved in DMSO, typically at a concentration of 0.5 mM and were serially diluted 1:3 for a total of eight points and added to the cells to final concentrations of […], 0.0041, 0.0014 and 0.00046 μM in 100 μl cell culture medium (final concentration 0.2% DMSO). […] The cells were incubated at 37° C., 5% CO2 for three days. CellTiter-Glo Buffer (Promega Cell Viability Assay catalog #G7573) and substrate were equilibrated to room temperature, and enzyme/substrate Recombinant Firefly Luciferase/Beetle Luciferin was reconstituted. The cell plates were equilibrated to room temperature for 30 minutes, then lysed by addition of an equivalent volume of the Celltiter-Glo Reagent. The plate was mixed for 10 minutes on a plate shaker to lyse the cells. The plates were read on a Tecan M1000 using Luminescence protocol modified to read 0.1 s per well. The luminescence reading assesses the ATP content, which correlates directly with cell number such that the reading as a function of compound concentration was used to determine the IC50 value.

FLT3-ITD = target: T1, FLT3-ITD (Homo sapiens, UniProt P36888); assay: AlphaScreen kinase assay with recombinant enzyme, FLT3-ITD; assay type: biochemical; conditions: 8pt; read-out: FLT3_ITD 8pt: IC50
T1 sequence (P36888 1-993): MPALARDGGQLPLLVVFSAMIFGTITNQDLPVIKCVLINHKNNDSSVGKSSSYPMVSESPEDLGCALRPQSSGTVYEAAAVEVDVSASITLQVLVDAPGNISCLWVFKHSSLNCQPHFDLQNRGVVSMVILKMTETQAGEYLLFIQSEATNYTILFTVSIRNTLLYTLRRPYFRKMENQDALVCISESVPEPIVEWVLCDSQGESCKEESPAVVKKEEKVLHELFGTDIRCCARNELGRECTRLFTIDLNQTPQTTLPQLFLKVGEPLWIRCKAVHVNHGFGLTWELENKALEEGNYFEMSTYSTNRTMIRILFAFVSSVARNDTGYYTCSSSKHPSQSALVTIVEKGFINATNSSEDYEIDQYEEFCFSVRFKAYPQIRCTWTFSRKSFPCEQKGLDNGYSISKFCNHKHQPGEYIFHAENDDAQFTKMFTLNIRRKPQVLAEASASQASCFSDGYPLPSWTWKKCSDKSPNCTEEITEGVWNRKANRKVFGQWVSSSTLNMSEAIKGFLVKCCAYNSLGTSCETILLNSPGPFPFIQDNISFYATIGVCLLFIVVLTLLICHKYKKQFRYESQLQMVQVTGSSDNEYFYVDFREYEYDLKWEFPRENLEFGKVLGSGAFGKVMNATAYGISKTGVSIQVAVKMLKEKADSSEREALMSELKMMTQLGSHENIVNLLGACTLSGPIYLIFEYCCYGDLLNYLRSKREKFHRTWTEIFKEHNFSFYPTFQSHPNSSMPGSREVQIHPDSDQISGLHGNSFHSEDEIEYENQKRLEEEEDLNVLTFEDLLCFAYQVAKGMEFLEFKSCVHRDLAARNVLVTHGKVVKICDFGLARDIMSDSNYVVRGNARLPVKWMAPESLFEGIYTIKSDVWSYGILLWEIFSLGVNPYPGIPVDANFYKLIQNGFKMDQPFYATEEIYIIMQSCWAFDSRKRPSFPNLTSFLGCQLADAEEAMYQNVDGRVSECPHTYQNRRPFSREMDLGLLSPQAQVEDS
Description: In order to determine the effect of compounds on FLT3 catalytic activity, kinase assays using recombinant enzymes and AlphaScreen® technology have been established. The catalytic activity of c-kit activity was also measured to determine selectivity of the compounds. When the kinases are catalytically active, they phosphorylate a biotinylated peptide substrate on tyrosine residues. Using AlphaScreen® technology, the ability of the compounds to affect the catalytic activity of the kinases can be measured quantitatively. The peptide substrate is immobilized by the AlphaScreen® Streptavidin Donor beads and, upon phosphorylation by a tyrosine kinase, can bind to AlphaScreen® Anti-Phosphotyrosine (PY20) Acceptor beads. Upon excitation of these beads with laser light at 680 nm, singlet oxygen is produced. This singlet oxygen is rapidly quenched, unless the AlphaScreen® Anti-Phosphotyrosine (PY20) Acceptor beads are in close proximity, in which case a proximity signal can be measured at 580 nm. In the presence of catalytic activity, there is a very strong proximity signal. Selective kinase inhibitors affect a decrease in this proximity signal through a decrease in tyrosine phosphorylation of the peptide substrate.
The assay was performed as summarized below.
Poly (Glu4-Tyr) Peptide, biotin conjugate [Biotin-GG(EEEEY)10EE] (SEQ ID NO: 4)
Final concentration=30 nM
Final concentration for IC50 determination=10 μM (FLT3-D835Y or FLT3-ITD) or 100 μM (c-KIT)
AlphaScreen® Phosphotyrosine (PY20) Assay Kit
Final concentration=10 μg/mL
Dilute compounds in DMSO to 20× final concentration.
Add 1 μl of compound to each well of 384 well reaction plate (Perkin Elmer #6005359).
Mix enzyme and Poly (Glu4-Tyr) Peptide substrate at 1.33× final concentration in assay buffer.
Mix ATP at 5× final concentration in assay buffer.
Add 15 μL enzyme/substrate mixture to the reaction plate.
Add 4 μL of ATP to the reaction plate.
Mix Streptavidin Donor beads at 6× final concentration in Stop/Detection buffer.
Add 5 μL Streptavidin Donor beads to the reaction plate. Centrifuge 1 minute, shake to mix, and incubate at room temperature for 20 minutes.
Mix Anti-Phosphotyrosine (PY20) Acceptor beads at 6× final concentration in Stop/Detection buffer.
Add 5 μL Anti-Phosphotyrosine (PY20) beads to the reaction plate.
Centrifuge 1 minute, shake to mix, and incubate at room temperature for 60 minutes.
Read plate on Wallac EnVision™ 2103 Multilabel Reader.

SMILES	IC50 [1]	IC50 (FLT3-ITD)
O=C(c1cccc(-c2cnc3[nH]c(-c4ccccc4)cc3c2)n1)N1CCC(F)(F)C1 [Compound P-0093, (3,3-difluoropyrrolidin-1-yl)-[6-(2-phenyl-1H-pyrrolo[2,3-b]pyridin-5-yl)-2-pyridyl]methanone]	0.0001 to 10 µM	0.0001 to 10 µM
COC1CCN(C(=O)c2cccc(-c3cnc4[nH]c(-c5ccccc5)cc4c3)n2)C1 (stereo not drawn) [Compound P-0095, (3-methoxypyrrolidin-1-yl)-[6-(2-phenyl-1H-pyrrolo[2,3-b]pyridin-5-yl)-2-pyridyl]methanone]	0.0001 to 10 µM	0.0001 to 10 µM
CNC(=O)C1CCN(C(=O)c2cccc(-c3cnc4[nH]c(-c5ccccc5)cc4c3)n2)C1 (stereo not drawn) [Compound P-0096, N-methyl-1-[6-(2-phenyl-1H-pyrrolo[2,3-b]pyridin-5-yl)pyridine-2-carbonyl]pyrrolidine-3-carboxamide]	0.0001 to 10 µM	0.0001 to 10 µM
O=C(c1cccc(-c2cnc3[nH]c(-c4ccccc4)cc3c2)n1)N1CCC(n2ccnc2)C1 (stereo not drawn) [Compound P-0097, (3-imidazol-1-ylpyrrolidin-1-yl)-[6-(2-phenyl-1H-pyrrolo[2,3-b]pyridin-5-yl)-2-pyridyl]methanone]	0.0001 to 10 µM	0.0001 to 10 µM
N#CCCNC(=O)c1cccc(-c2cnc3[nH]c(-c4ccccc4)cc3c2)n1 [Compound P-0099, N-(2-cyanoethyl)-6-(2-phenyl-1H-pyrrolo[2,3-b]pyridin-5-yl)pyridine-2-carboxamide]	0.0001 to 10 µM	0.0001 to 10 µM
CC(C)(C#N)CNC(=O)c1cccc(-c2cnc3[nH]c(-c4ccccc4)cc3c2)n1 [Compound P-0100, N-(2-cyano-2-methyl-propyl)-6-(2-phenyl-1H-pyrrolo[2,3-b]pyridin-5-yl)pyridine-2-carboxamide]	0.0001 to 10 µM	0.0001 to 10 µM
N#CC1CCN(C(=O)c2cccc(-c3cnc4[nH]c(-c5ccccc5)cc4c3)n2)C1 (stereo not drawn) [Compound P-0105, 1-[6-(2-phenyl-1H-pyrrolo[2,3-b]pyridin-5-yl)pyridine-2-carbonyl]pyrrolidine-3-carbonitrile]	0.0001 to 10 µM	0.0001 to 10 µM
CN[C@@H]1CCN(C(=O)c2ccc(-c3cnc4[nH]c(-c5ccccc5)cc4c3)s2)C1 [Compound P-0106, [(3R)-3-(methylamino)pyrrolidin-1-yl]-[5-(2-phenyl-1H-pyrrolo[2,3-b]pyridin-5-yl)-2-thienyl]methanone]	0.0001 to 10 µM	0.0001 to 10 µM
CS(=O)(=O)N1CCC(NS(=O)(=O)c2cccc(-c3cnc4[nH]c(-c5ccccc5)cc4c3)n2)C1 (stereo not drawn) [Compound P-0107, N-(1-methylsulfonylpyrrolidin-3-yl)-6-(2-phenyl-1H-pyrrolo[2,3-b]pyridin-5-yl)pyridine-2-sulfonamide]	0.0001 to 10 µM	0.0001 to 10 µM
O=S(=O)(NC1CC1)c1cccc(-c2cnc3[nH]c(-c4ccccc4)cc3c2)n1 [Compound P-0109, N-cyclopropyl-6-(2-phenyl-1H-pyrrolo[2,3-b]pyridin-5-yl)pyridine-2-sulfonamide]	0.0001 to 10 µM	0.0001 to 10 µM
N#CC1(NC(=O)c2cccc(-c3cnc4[nH]c(-c5ccccc5)cc4c3)n2)CC1 [Compound P-0111, N-(1-cyanocyclopropyl)-6-(2-phenyl-1H-pyrrolo[2.3-b]pyridin-5-yl]pyridine-2-carboxamide]	0.0001 to 10 µM	0.0001 to 10 µM
O=C(c1cccc(-c2cnc3[nH]c(-c4cnn(CC(F)(F)F)c4)cc3c2)n1)N1CCC(F)(F)C1 [Compound P-0112, (3,3-difluoropyrrolidin-1-yl)-[6-[2-[1-(2,2,2-trifluoroethyl)pyrazol-4-yl]-1H-pyrrolo[2,3-b]pyridin-5-yl]-2-pyridyl]methanone]	0.0001 to 10 µM	0.0001 to 10 µM
CC(C)(C#N)CNC(=O)c1cccc(-c2cnc3[nH]c(-c4cnn(CC(F)(F)F)c4)cc3c2)n1 [Compound P-0113, N-(2-cyano-2-methyl-propyl)-6-[2-[1-(2,2,2-trifluoroethyl)pyrazol-4-yl]-1H-pyrrolo[2,3-b]pyridin-5-yl]pyridine-2-carboxamide]	0.0001 to 10 µM	0.0001 to 10 µM
N#CC1(NC(=O)c2cccc(-c3cnc4[nH]c(-c5ccccc5)cc4c3)n2)CCC1 [Compound P-0114, N-(1-cyanocyclobutyl)-6-(2-phenyl-1H-pyrrolo[2,3-b]pyridin-5-yl)pyridine-2-carboxamide]	0.0001 to 10 µM	0.0001 to 10 µM
N#CC1(F)CCN(C(=O)c2cccc(-c3cnc4[nH]c(-c5ccccc5)cc4c3)n2)C1 (stereo not drawn) [Compound P-0115, 3-fluoro-1-[6-(2-phenyl-1H-pyrrolo[2,3-b]pyridin-5-yl)pyridine-2-carbonyl]pyrrolidine-3-carbonitrile]	0.0001 to 10 µM	0.0001 to 10 µM
N#C[C@H]1CCN(C(=O)c2cccc(-c3cnc4[nH]c(-c5ccccc5)cc4c3)n2)C1 [Compound P-0117, (3S)-1-[6-(2-phenyl-1H-pyrrolo[2,3-b]pyridin-5-yl)pyridine-2-carbonyl]pyrrolidine-3-carbonitrile]	0.0001 to 10 µM	0.0001 to 10 µM
N#CC1CCN(S(=O)(=O)c2cccc(-c3cnc4[nH]c(-c5ccccc5)cc4c3)n2)C1 (stereo not drawn) [Compound P-0121, 1-[[6-(2-phenyl-1H-pyrrolo[2,3-b]pyridin-5-yl)-2-pyridyl]sulfonyl]pyrrolidine-3-carbonitrile]	0.0001 to 10 µM	–
